Data reported in patent US12404289B2 (Gilead Sciences, Inc., priority 2020, dated 2025).

How the values were obtained:
Assay type in all cases: cell-based
[1] = system: Respiratory syncytial virus (RSV) strain A2; experiment: Hep-2 RSV2 384-well assay (EC50-HEP2-384); details: HEp-2 cells, RSV A2, MOI=4, 4 days, Table 3
[2] = system: Respiratory syncytial virus (RSV) strain A2; experiment: RSV antiviral assay (HEp-2, 96 well); details: human respiratory syncytial virus, HEp-2, 96 h, read-out: EC50 RSV HEP2 96, HEp-2 cells, RSV A2, MOI=4, 4 days, 96 well; Table 3
[3] = system: SARS-CoV-2; experiment: SARS-CoV-2 antiviral assay (A549-hACE2, Nano luciferase); details: Severe acute respiratory syndrome coronavirus 2, 48 h, A549-hACE2 cells, SARS-CoV2-Nano, MOI 0.025, 48 h; Table 4; read-out: EC50 SARS CoV2
[4] = human respiratory syncytial virus, HEp-2, 96 h

Compound | EC50 [1, 4] [nM] | EC50 [2] [nM] | EC50 [3] [nM] | other results
C[C@H](NP(=O)(OC[C@H]1O[C@@](C#N)(c2ccc3c(N)ncnn23)[C@H](O)[C@@H]1O)Oc1ccc(C(C)(C)C)cc1)C(=O)OC1CCC1 (single isomer, unassigned) [Example 31b] |  |  |  | EC50 [1]: 41.1 nM
CCCOC(=O)[C@H](C)NP(=O)(OC[C@H]1O[C@@](C#N)(c2ccc3c(N)ncnn23)[C@H](O)[C@@H]1O)Oc1ccc(C(C)(C)C)cc1 (single isomer, unassigned) [Example 47a] | 41.6 |  |  | 
CCCOC(=O)[C@H](C)NP(=O)(OC[C@H]1O[C@@](C#N)(c2ccc3c(N)ncnn23)[C@H](O)[C@@H]1O)Oc1ccc(C(C)(C)C)cc1 (single isomer, unassigned) [Example 47b] |  |  |  | EC50 [1]: 68.3 nM
CCCOC(=O)[C@H](C)NP(=O)(OC[C@H]1O[C@@](C#N)(c2ccc3c(N)ncnn23)[C@H](OC(=O)C(C)C)[C@@H]1OC(=O)C(C)C)Oc1ccc(C(C)(C)C)cc1 (single isomer, unassigned) [Example 48a] | 34 |  |  | 
CCCOC(=O)[C@H](C)NP(=O)(OC[C@H]1O[C@@](C#N)(c2ccc3c(N)ncnn23)[C@H](OC(=O)C(C)C)[C@@H]1OC(=O)C(C)C)Oc1ccc(C(C)(C)C)cc1 (single isomer, unassigned) [Example 48b] |  |  |  | EC50 [1]: 55.4 nM
CCC(CC)COC(=O)[C@H](C)NP(=O)(OC[C@H]1O[C@@](C#N)(c2ccc3c(N)ncnn23)[C@H](O)[C@@H]1O)Oc1cccc2c1CCCC2 (single isomer, unassigned) [Example 135] |  |  |  | EC50 [1]: 1260 nM
CCC(CC)COC(=O)[C@H](C)NP(=O)(OC[C@H]1O[C@@](C#N)(c2ccc3c(N)ncnn23)[C@H](O)[C@@H]1O)Oc1cccc2c1CCCC2 (single isomer, unassigned) [Example 136] |  |  |  | EC50 [1]: 377 nM
C[C@H](NP(=O)(OC[C@H]1O[C@@](C#N)(c2ccc3c(N)ncnn23)[C@H](O)[C@@H]1O)Oc1ccc(C(C)(C)C)cc1)C(=O)O[C@H]1CCOC1 (stereo partly drawn) [Example 34, (S)-tetrahydrofuran-3-yl ((((2R,3S,4R,5R)-5-(4-aminopyrrolo[2,1-f][1,2,4]triazin-7-yl)-5-cyano-3,4-dihydroxytetrahydrofuran-2-yl)methoxy)(4-(tert-butyl)phenoxy)phosphoryl)-L-alaninate] | 1500 |  |  | 
CC(=O)O[C@H]1[C@@H](OC(C)=O)[C@](C#N)(c2ccc3c(N)ncnn23)O[C@@H]1COP(=O)(N[C@@H](C)C(=O)O[C@H]1CCOC1)Oc1ccc(C(C)(C)C)cc1 (stereo partly drawn) [Example 35, (2R,3R,4R,5R)-2-(4-aminopyrrolo[2,1-f][1,2,4]triazin-7-yl)-5-((((4-(tert-butyl)phenoxy)(((S)-1-oxo-1-(((S)-tetrahydrofuran-3-yl)oxy)propan-2-yl)amino)phosphoryl)oxy)methyl)-2-cyanotetrahydrofuran-3,4-diyl Diacetate] | 185 |  |  | 
CC(C)C(=O)O[C@H]1[C@@H](OC(=O)C(C)C)[C@](C#N)(c2ccc3c(N)ncnn23)O[C@@H]1COP(=O)(N[C@@H](C)C(=O)O[C@H]1CCOC1)Oc1ccc(C(C)(C)C)cc1 (stereo partly drawn) [Example 36, (2R,3R,4R,5R)-2-(4-aminopyrrolo[2,1-f][1,2,4]triazin-7-yl)-5-((((4-(tert-butyl)phenoxy)(((S)-1-oxo-1-(((S)-tetrahydrofuran-3-yl)oxy)propan-2-yl)amino)phosphoryl)oxy)methyl)-2-cyanotetrahydrofuran-3,4-diyl bis(2-methylpropanoate)] | 102 |  |  | 
CC(C)C(=O)O[C@H]1[C@@H](OC(=O)C(C)C)[C@](C#N)(c2ccc3c(N)ncnn23)O[C@@H]1CO[P@@](=O)(N[C@@H](C)C(=O)O[C@H]1CCOC1)Oc1ccc(C(C)(C)C)cc1 [Example 38, (2R,3R,4R,5R)-2-(4-aminopyrrolo[2,1-f][1,2,4]triazin-7-yl)-5-((((4-(tert-butyl)phenoxy)(((S)-1-oxo-1-(((S)-tetrahydrofuran-3-yl)oxy)propan-2-yl)amino)phosphoryl)oxy)methyl)-2-cyanotetrahydrofuran-3,4-diyl bis(2-methylpropanoate)] | 138 |  |  | 
CCC(CC)COC(=O)[C@H](C)NP(=O)(OC[C@H]1O[C@@](C#N)(c2ccc3c(N)ncnn23)[C@H](O)[C@@H]1O)Oc1ccc(C#N)cc1 (stereo partly drawn) [Example 39, 2-ethylbutyl ((((2R,3S,4R,5R)-5-(4-aminopyrrolo[2,1-f][1,2,4]triazin-7-yl)-5-cyano-3,4-dihydroxytetrahydrofuran-2-yl)methoxy)(4-cyanophenoxy)phosphoryl)-L-alaninate] | 1600 |  |  | 
CCC(CC)COC(=O)[C@H](C)NP(=O)(OC[C@H]1O[C@@](C#N)(c2ccc3c(N)ncnn23)[C@H](OC(=O)C(C)C)[C@@H]1OC(=O)C(C)C)Oc1ccc(C#N)cc1 (stereo partly drawn) [Example 40, (2R,3R,4R,5R)-2-(4-aminopyrrolo[2,1-f][1,2,4]triazin-7-yl)-2-cyano-5-((((4-cyanophenoxy)(((S)-1-(2-ethylbutoxy)-1-oxopropan-2-yl)amino)phosphoryl)oxy)methyl)tetrahydrofuran-3,4-diyl bis(2-methylpropanoate)] | 226 |  |  | 
CCOC(=O)[C@H](C)NP(=O)(OC[C@H]1O[C@@](C#N)(c2ccc3c(N)ncnn23)[C@H](O)[C@@H]1O)Oc1ccc(C23CC(C2)C3)cc1 (stereo partly drawn) [Example 41, Ethyl ((((2R,3S,4R,5R)-5-(4-aminopyrrolo[2,1-f][1,2,4]triazin-7-yl)-5-cyano-3,4-dihydroxytetrahydrofuran-2-yl)methoxy)(4-(bicyclo[1.1.1]pentan-1-yl)phenoxy)phosphoryl)-L-alaninate] | 142 |  |  | 
CCC(CC)COC(=O)[C@H](C)NP(=O)(OC[C@H]1O[C@@](C#N)(c2ccc3c(N)ncnn23)[C@H](OC(=O)C(C)C)[C@@H]1OC(=O)C(C)C)Oc1cccc2ccccc12 (stereo partly drawn) [Example 70, [(2R,3R,4R,5R)-5-(4-aminopyrrolo[2,1-f][1,2,4]triazin-7-yl)-5-cyano-2-[[[[(1S)-2-(2-ethylbutoxy)-1-methyl-2-oxo-ethyl]amino]-(1-naphthyloxy)phosphoryl]oxymethyl]-4-(2-methylpropanoyloxy)tetrahydrofuran-3-yl] 2-methylpropanoate] |  | 49 | 319 | 
CCC(=O)O[C@H]1[C@@H](OC(=O)CC)[C@](C#N)(c2ccc3c(N)ncnn23)O[C@@H]1COP(=O)(N[C@@H](C)C(=O)OC1CCC1)Oc1ccccc1 (stereo partly drawn) [Example 107, (2R,3R,4R,5R)-2-(4-aminopyrrolo[2,1-f][1,2,4]triazin-7-yl)-2-cyano-5-((((((S)-1-cyclobutoxy-1-oxopropan-2-yl)amino)(phenoxy)phosphoryl)oxy)methyl)tetrahydrofuran-3,4-diyl Dipropionate] |  | 20.1 | 180 | 
CCOC(=O)[C@H](C)NP(=O)(OC[C@H]1O[C@@](C#N)(c2ccc3c(N)ncnn23)[C@H](OC(=O)CC)[C@@H]1OC(=O)CC)Oc1ccc(C(C)(C)C)cc1 (stereo partly drawn) [Example 108, (2R,3R,4R,5R)-2-(4-aminopyrrolo[2,1-f][1,2,4]triazin-7-yl)-5-((((4-(tert-butyl)phenoxy)(((S)-1-ethoxy-1-oxopropan-2-yl)amino)phosphoryl)oxy)methyl)-2-cyanotetrahydrofuran-3,4-diyl Dipropionate] |  | 27.7 | 82.9 | 
CCC(=O)O[C@H]1[C@@H](OC(=O)CC)[C@](C#N)(c2ccc3c(N)ncnn23)O[C@@H]1COP(=O)(N[C@@H](C)C(=O)OC)Oc1ccc(C(C)(C)C)cc1 (stereo partly drawn) [Example 113, (2R,3R,4R,5R)-2-(4-aminopyrrolo[2,1-f][1,2,4]triazin-7-yl)-5-((((4-(tert-butyl)phenoxy)(((S)-1-methoxy-1-oxopropan-2-yl)amino)phosphoryl)oxy)methyl)-2-cyanotetrahydrofuran-3,4-diyl Dipropionate] |  | 22.1 | 126 | 
CC(C)COC(=O)[C@H](C)NP(=O)(OC[C@H]1O[C@@](C#N)(c2ccc3c(N)ncnn23)[C@H](O)[C@@H]1O)Oc1ccc(C(C)(C)C)cc1 (stereo partly drawn) [Example 118, isobutyl ((((2R,3S,4R,5R)-5-(4-aminopyrrolo[2,1-f][1,2,4]triazin-7-yl)-5-cyano-3,4-dihydroxytetrahydrofuran-2-yl)methoxy)(4-(tert-butyl)phenoxy)phosphoryl)-L-alaninate] |  | 23.5 | 329 | 
CCC(C)(C)COC(=O)[C@H](C)NP(=O)(OC[C@H]1O[C@@](C#N)(c2ccc3c(N)ncnn23)[C@H](O)[C@@H]1O)Oc1ccc(C(C)(C)C)cc1 (stereo partly drawn) [Example 121, 2,2-dimethylbutyl ((((2R,3S,4R,5R)-5-(4-aminopyrrolo[2,1-f][1,2,4]triazin-7-yl)-5-cyano-3,4-dihydroxytetrahydrofuran-2-yl)methoxy)(4-(tert-butyl)phenoxy)phosphoryl)-L-alaninate] |  | 23.5 | 110 | 
CCOC(=O)[C@H](C)NP(=O)(OC[C@H]1O[C@@](C#N)(c2ccc3c(N)ncnn23)[C@H](O)[C@@H]1O)Oc1cccc2ccccc12 (stereo partly drawn) [Intermediate S1, ethyl (2S)-2-[[[(2R,3S,4R,5R)-5-(4-aminopyrrolo[2,1-f][1,2,4]triazin-7-yl)-5-cyano-3,4-dihydroxy-tetrahydrofuran-2-yl]methoxy-(1-naphthyloxy)phosphoryl]amino]propanoate] |  | 93.3 | 714 | 
CCC(CC)COC(=O)[C@H](C)NP(=O)(OC[C@H]1O[C@@](C#N)(c2ccc3c(N)ncnn23)[C@H](O)[C@@H]1O)Oc1cccc2ccccc12 (stereo partly drawn) [Intermediate S2, 2-Ethylbutyl ((((2R,3S,4R,5R)-5-(4-aminopyrrolo[2,1-f][1,2,4]triazin-7-yl)-5-cyano-3,4-dihydroxytetrahydrofuran-2-yl)methoxy)(naphthalen-1-yloxy)phosphoryl)-L-alaninate] |  | 84.8 | 207 | 
